Source: paper PMC10916623, “Tissue distribution and pharmacokinetics of isoxanthohumol from hops in rodents” (Food Science & Nutrition, 2023)
Values joined by “and” are separate entries in the source; they are usually repeats but may differ in a detail not shown here. Equal entries are not always repeated. Where two headings read alike, the source gives them in different places. Marks after values point to notes of the source that are not given here.

What was measured:
[1] = Tissue and plasma accumulation after daily gavage administration of IXA to mice for 14 days; type: in vivo, C57/BL6 mice; settings: IXA 30 mg/kg BW daily 14 days, 24 h after final administration
Description: Animal species, age, sex, initial BW, feeding conditions, and dosage method were the same as those for the single gavage administration test, but the dose was 30 mg/kg BW. […] Daily gavage administration without fasting was performed at 12:00 PM for 14 days. The final BW was 21–26 g. Blood, brain, thymus, heart, lung, liver, spleen, kidney, and gastrocnemius muscle were collected 24 h after the final administration. The sample collection method was the same as that for the single gavage administration test.
(§1) Plasma samples were deconjugated by β‐glucuronidase type H‐1 (which has β‐glucuronidase and sulphatase activity; Sigma, St. Louis, MO, USA; G0751) to convert aglycon from conjugated metabolites of IXA and 8‐PN, as described in a previous report (Y. Tanaka et al., [2022]). Briefly, 100 μL of plasma was mixed with 900 μL of 0.1 mol/L sodium acetate buffer (pH 4.7), 200 μL of 50 mmol/L ascorbic acid, and 1 mL of 1.67 μkat/100 μL of β‐glucuronidase type H‐1, and then incubated for 30 min at 37°C. Then, 2.4 nmol of QTM was added to the samples as the internal standard. The liberated aglycone was extracted using ethyl acetate (Kanto Kagaku, 14,029‐2B).
(§2) Tissue sample deconjugation was performed as described in a previous report with slight modifications (Tanaka et al., [2022]). Tissues were homogenized in phosphate‐buffered saline (pH 7.4), which was nine times the tissue volume. The tissue homogenate was incubated in 50 mmol/L ascorbic acid (one‐fifth the volume of phosphate‐buffered saline) and 1.67 μkat/100 μL of β‐glucuronidase type H‐1 in 0.1 mol/L sodium acetate buffer (pH 4.7, nine times the volume of the sample) for 2 h at 37°C. Then, 2.4 nmol of QTM was added to samples as an internal standard. The supernatant was isolated by centrifugation at 17 × 10^3 m/s^2 (Kubota) for 5 min at 4°C. Then, methanol (Kanto Kagaku, 25183‐2B) was added to the pellets, and they were shaken for 1 min. The methanol layer and pellets were separated by centrifugation at 17 × 10^3 m/s^2 (Kubota, RY1071‐A000) for 5 min at 4°C. Methanol extraction was repeated three times. Finally, methanol extracts were mixed with the supernatant (the composition of the mixture was 30% methanol) and then applied to an Inert Sep C8 (200 mg/3 mL; GL Sciences, Tokyo, Japan; 5010‐61082) cartridge. The cartridge was preconditioned with 6 mL of 2% acetic acid in methanol, and then 9 mL of 2% acetic acid in water. The extracted tissue was passed through the cartridge, and it was washed with 5 mL of 2% acetic acid in 30% methanol aq. The flavonoids were eluted with 10 mL of 2% acetic acid in methanol.
(§3) The plasma and tissue extracts were evaporated using a Centrifugal Evaporator (EYERA, Tokyo, Japan, CVE‐3000). The samples were stored at −80°C until the next day. Then, the samples were dissolved in 120 μL of a mobile phase solution and divided into two test tubes. The first sample was injected into the HPLC with an ultraviolet detection system (Shimadzu, Kyoto, Japan).
(§4) IXA and 8‐PN concentrations were determined by their respective standard curves using an internal standard method. A Cadenza 3‐μm CD‐C18 HPLC column (CD005, 150 × 4.6 mm; Imtakt Corporation, Kyoto, Japan) was equipped for HPLC (λ = 295 nm). The mobile phase consisted of methanol:water:acetic acid (60:35:5, v/v/v). The flow rate was set at 1.0 mL/min. […] Because clear peaks over 4.5 pmol/sample were detected for IXA and 8‐PN by visual evaluation, we determined that these concentrations were the peak limit of detections for each flavonoid. We applied calibration curves in the IXA/QTM concentration ratio range of 0.007–35.1 (R ^2 = .9955).

[2] = Tissue distribution after single-gavage administration of IXA to mice; type: in vivo, C57/BL6 mice; settings: mice; for IXA accumulation, single-ingestion test (at 24 h): single IXA 50 mg/kg BW
Description: (§5) Six‐week‐old male C57/BL6 mice (initial BW: 19–24 g; Japan SLC, Shizuoka, Japan) were housed in a room maintained at 23–26°C with a 12‐h light–dark cycle. During the 1‐week acclimatization period, they were allowed free access to a commercial diet (Oriental Yeast Co., Tokyo, Japan) and water. Two days before the experiment, they were fed AIN‐93M (Oriental Yeast Co.). Before drug administration, they were fasted for 20 h, but had free access to water. IXA dissolved in 3% hydroxypropyl‐β‐cyclodextrin and 5% ethanol (Fujifilm; Wako Pure Chemical Corp., Osaka, Japan) was named the injection solution and administered (50 mg/kg BW) to mice intragastrically using a gastric feeding tube (AS ONE, Osaka, Japan). Blood, brain, thymus, heart, lung, liver, spleen, pancreas, kidney, and gastrocnemius muscle were collected 0.5, 1, 2, 4, 8, 12, 24, and 48 h after administration. We also set up a control group, and mice in this group were sacrificed just before we started administering IXA at 0 h. At 4 h after administration, mice were allowed free access to AIN‐93 M. Plasma was isolated by centrifugation at 17 × 10^3 m/s^2 (5911, Kubota, Tokyo, Japan) for 5 min at 4°C. All tissues were dissected, weighed, and immediately frozen in liquid nitrogen. All samples were stored at −80°C until analysis.
as §2, §3, §4

[3] = Plasma pharmacokinetics after single-gavage administration of IXA to mice; type: in vivo, C57/BL6 mice; settings: for Cmax: mean ± SEM
Description: as §5, §1, §3, §4

[4] = design: method as in Possemiers et al., 2008; settings: ref Possemiers et al., 2008; cited from earlier work
[5] = kidney, single oral IXA 50 mg/kg BW
[6] = lung, single oral IXA 50 mg/kg BW
[7] = single oral IXA 50 mg/kg BW, plasma

IXA accumulation, 14-day repeated-ingestion test ([1]; brain): 0.2 ± 0.1 nmol/g of tissue
IXA accumulation, 14-day repeated-ingestion test ([1]; heart): not detected
IXA accumulation, 14-day repeated-ingestion test ([1]; kidney): 5.8 ± 1.0 nmol/g of tissue
IXA accumulation, 14-day repeated-ingestion test ([1]; liver): 8.6 ± 2.9 nmol/g of tissue
IXA accumulation, 14-day repeated-ingestion test ([1]; lung): 3.2 ± 2.8 nmol/g of tissue
IXA accumulation, 14-day repeated-ingestion test ([1]; plasma): not detected
IXA accumulation, 14-day repeated-ingestion test ([1]; spleen): 3.4 ± 2.0 nmol/g of tissue
IXA accumulation, 14-day repeated-ingestion test ([1]; thymus): 4.3 ± 3.8 nmol/g of tissue
IXA detection in the brain ([2]; brain, single oral IXA 50 mg/kg BW, data not shown): not detected
time of second peak of IXA ([2]; heart, single oral IXA 50 mg/kg BW): 4 h
C max IXA ([2]; heart, single oral IXA 50 mg/kg BW, measured at 0.5 h): 3.3 ± 1.0^b,c nmol/g of tissue
IXA accumulation, single-ingestion test (at 24 h) ([2]; kidney): 4.6 ± 0.3 nmol/g of tissue
time of second peak of IXA [2, 5]: 8 h
IXA level at 48 h after ingestion [2, 5]: 2.67 ± 0.41 nmol/g tissue
C max IXA ([2]; kidney, single oral IXA 50 mg/kg BW, measured at 1 h): 25.5 ± 5.3^a,b nmol/g of tissue
IXA accumulation, single-ingestion test (at 24 h) ([2]; liver): 3.2 ± 1.3 nmol/g of tissue
IXA level at 48 h after ingestion ([2]; liver, single oral IXA 50 mg/kg BW): 0.14 ± 0.12 nmol/g tissue
C max IXA ([2]; liver, single oral IXA 50 mg/kg BW, measured at 1 h): 76.2 ± 32.4^a nmol/g of tissue
IXA accumulation, single-ingestion test (at 24 h) ([2]; lung): 1.7 ± 1.5 nmol/g of tissue
time of second peak of IXA [2, 6]: 2 h
IXA level at 48 h after ingestion [2, 6]: 0.05 ± 0.04 nmol/g tissue
C max IXA ([2]; lung, single oral IXA 50 mg/kg BW, measured at 0.5 h): 5.3 ± 3.3^b,c nmol/g of tissue
IXA accumulation, single-ingestion test (at 24 h) ([2]; muscle): 0.1 ± 0.1 nmol/g of tissue
C max IXA ([2]; muscle, single oral IXA 50 mg/kg BW, measured at 0.5 h): 3.4 ± 1.3^b,c nmol/g of tissue
time of second peak of IXA ([2]; pancreas, single oral IXA 50 mg/kg BW): 12 h
C max IXA ([2]; pancreas, single oral IXA 50 mg/kg BW, measured at 0.5 h): 22.4 ± 2.1^b,c nmol/g of tissue
time of second peak of IXA ([2]; skeletal muscle, single oral IXA 50 mg/kg BW): 12 h
IXA accumulation, single-ingestion test (at 24 h) ([2]; spleen): 1.1 ± 1.0 nmol/g of tissue
time of second peak of IXA ([2]; spleen, single oral IXA 50 mg/kg BW): 4 h
C max IXA ([2]; spleen, single oral IXA 50 mg/kg BW, measured at 0.5 h): 6.5 ± 2.2^b,c nmol/g of tissue
IXA accumulation, single-ingestion test (at 24 h) ([2]; thymus): 3.6 ± 3.1 nmol/g of tissue
time of second peak of IXA ([2]; thymus, single oral IXA 50 mg/kg BW): 4 h
C max IXA ([2]; thymus, single oral IXA 50 mg/kg BW, measured at 0.5 h): 6.5 ± 4.1^b,c nmol/g of tissue
IXA accumulation, single-ingestion test (at 24 h) ([3]; plasma, single IXA 50 mg/kg BW, 24 h): 0.2 ± 0.1 μmol/L of plasma
time at which IXA was increased further ([3]; plasma, single oral IXA 50 mg/kg BW): 8 h
IXA in plasma at 48 h after administration ([3]; single oral IXA 50 mg/kg BW, 48 h): not detected
T 1/2 (half-life in the mean elimination phase) [3, 7]: 1.43 h and 1.4 h
time until which detected in plasma after ingestion [3, 7]: 24 h
Cmax ([3]; single oral IXA 50 mg/kg BW, plasma, at 0.5 h, read-out: plasma maximum concentration (C max)): 3.95 ± 0.81 µM
AUC24h ([3]; single oral IXA 50 mg/kg BW, plasma, calculated using the mean at each time point): 18.2 µM·h
Cmax ([3]; single oral IXA 50 mg/kg BW, plasma, read-out: C max): 4 ± 0.8 µM
Substance: 4,7‐dihydroxy‐5‐methoxy‐8‐prenylflavanone [IXA]
rate of excretion into the feces [4]: approximately 47%
